Test results: patent US6737383B1, “Herbicidal oxadiazolidines” (priority 1999, dated 2004)

Legend:
morningglory = assay: Test B pre/postemergence morningglory; assay type: in vivo, Ipomoea hederacea
In short: (§1)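 Herbicidal effect was estimated by eye on a ten-point control scale after plants spent twelve to sixteen days in a greenhouse following soil or foliar treatment. Foliar sprays targeted plants at one to four leaves; all doses were formulated in a non-phytotoxic solvent with surfactant.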

blackgrass [1] = assay: Test B pre/postemergence blackgrass; assay type: in vivo, Alopecurus myosuroides
In short: as §1

Johnson grass = assay: Test D Johnson grass; assay type: in vivo, Sorghum halepense; conditions: Preemergence, 0 to 100 scale
Excerpt: (§2) Seeds, tubers, or plant parts of Alexandergrass (Brachiaria plantaginea), bermuda-grass (Cynodon dactylon), common pursiane (Portulaca oleracea), common ragweed (Ambrosia elatior), common groundsel (Senecio vulgaris), dallisgrass (Paspalum dilatatum), goosegrass (Eleusine indica), guineagrass (Panicum maximum), itchgrass (Rottboellia exaltata), Johnson grass (Sorghum halepense), large crabgrass (Digitaria sanguinalis), pitted morningglory (Ipomoea lacunosa), purple nutsedge (Cyperus rotundus), sandbur (Cenchrus echinatus), sourgrass (Trichachne insularis), Spanishneedles (Bidens bipinnata), surinam grass (Brachiaria decumbens) and tall mallow (Malva sylvestris) were planted into greenhouse pots of flats containing greenhouse planting medium. Plant species were grown in separate pots or individual compartments. Preemergence applications were made within one day of planting the seed or plant part.
(§3) Test chemicals were formulated in a non-phytotoxic solvent mixture which included a surfactant and applied preemergence to the surface of the pot containing seeds in a sandy loam soil. Untreated control pots and treated pots were placed in the greenhouse for growth and visually evaluated for injury 14 to 21 days after herbicide application. Plant response ratings, summarized in Table C, are based on a 0 to 100 scale where 0 is no injury and 100 is complete control. A dash (−) response means no test result.

crabgrass = assay: Test B pre/postemergence crabgrass; assay type: in vivo, Digitaria sanguinalis
In short: as §1

common pursiane = assay: Test D common purslane; assay type: in vivo, Portulaca oleracea; conditions: Preemergence, 0 to 100 scale
Excerpt: as §2, §3

bamyardgrass = assay: Test B flood test barnyardgrass; assay type: in vivo, Echinochloa crus-galli
In short: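 Each value is a visual injury score relative to controls, with 10 meaning complete control and 0 no effect. Evaluation took place twelve to sixteen days after the 2-leaf-stage plants were treated and kept in the greenhouse.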

winter barley = assay: Test E winter barley; assay type: in vivo, Hordeum vulgare; conditions: Preemergence
blackgrass [2] = assay: Test E blackgrass; assay type: in vivo, Alopecurus myosuroides; conditions: Preemergence
winter wheat [3] = assay: Test E winter wheat; assay type: in vivo, Triticum aestivum; conditions: Preemergence
green foxtail = assay: Test E green foxtail; assay type: in vivo, Setaria viridis; conditions: Preemergence
Italian ryegrass = assay: Test E Italian ryegrass; assay type: in vivo, Lolium multiflorum; conditions: Preemergence
winter wheat [4] = assay: Test E winter wheat; assay type: in vivo, Triticum aestivum; conditions: Postemergence, 0 to 100 scale, 0 is no effect, 100 is complete control
In short: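 For postemergence, application to 1- to 4-leaf plants growing in a 60:40 sandy loam–potting mix substrate. Formulation: non-phytotoxic solvent mixture plus surfactant. Untreated controls served as the reference for the visual rating after ~21–28 days.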

wild oat = assay: Test E wild oat; assay type: in vivo, Avena fatua; conditions: Preemergence
[5] = Postemergence, Rate 62 g/ha, scale 0 to 10, 0 is no effect, 10 is complete control
[6] = Postemergence, Rate 250 g/ha, scale 0 to 10, 0 no effect, 10 complete control
[7] = Preemergence, Rate 31 g/ha, visual rating, scale 0 to 10 (0 no effect, 10 complete control)
[8] = Preemergence, Rate 62 g/ha, scale 0 to 10, 0 is no effect, 10 is complete control
[9] = Preemergence, Rate 125 g/ha, scale 0 to 10 (0 no effect, 10 complete control)
[10] = Preemergence, Rate 250 g/ha, scale of 0 to 10 where 0 is no effect and 10 is complete control
[11] = Rate 31 g/ha, Postemergence, scale 0 to 10
[12] = Rate 125 g/ha, Postemergence, scale 0 to 10, 0 no effect, 10 complete control
[13] = Rate 32 g/ha, 0 no injury, 100 complete control
[14] = Rate 64 g/ha, 0 no injury, 100 complete control
[15] = Rate 125 g/ha, 0 no injury, 100 complete control
[16] = Postemergence, Rate 125 g/ha, scale of 0 to 10 where 0 is no effect and 10 is complete control
[17] = Preemergence, Rate 62 g/ha, scale 0 to 10 (0 no effect, 10 complete control)
[18] = Preemergence, Rate 125 g/ha, 0 is no effect, 10 is complete control
[19] = Preemergence, Rate 250 g/ha, scale 0 to 10, 0 is no effect, 10 is complete control
[20] = Preemergence, Rate 500 g/ha, scale 0 to 10 (0 no effect, 10 complete control)
[21] = Rate 62 g/ha, Postemergence, scale of 0 to 10 where 0 is no effect and 10 is complete control
[22] = Rate 250 g/ha, Postemergence, scale 0 to 10, 0 is no effect, 10 is complete control
[23] = Rate 500 g/ha, Postemergence, scale 0 to 10
[24] = Rate 250 g/ha, Pre-emergence, flood-test species, scale 0 to 10, 0 is no effect, 10 is complete control
[25] = Rate 125 g/ha, 0 to 100 scale (0 no effect, 100 complete control)
[26] = Rate 500 g/ha, 0 to 100 scale (0 no effect, 100 complete control)
[27] = Postemergence, Rate 125 g/ha, scale 0 to 10, 0 is no effect, 10 is complete control
[28] = Preemergence, Rate 500 g/ha, scale of 0 to 10 where 0 is no effect and 10 is complete control
[29] = Rate 500 g/ha, Postemergence, scale 0 to 10, 0 no effect, 10 complete control

## Cc1cccc(C)c1-n1c(=O)on(C(=O)N(c2ccc(F)cc2F)C(C)C)c1=O [Compound 28]
morningglory; [5]
  Morningglory plant response rating: 2
morningglory; [6]
  Morningglory plant response rating: 2
morningglory; [7]
  Morningglory plant response rating: 0
morningglory; [8]
  Plant response rating, Morningglory: 0
morningglory; [9]
  Plant response rating, Morningglory: 0
morningglory; [10]
  Plant response rating, Morningglory: 0
morningglory; [11]
  Morningglory plant response rating: 0
morningglory; [12]
  Morningglory plant response rating: 2
Blackgrass [1]; [5]
  Blackgrass plant response rating: 0
Blackgrass [1]; [6]
  Blackgrass plant response rating: 6
Blackgrass [1]; [7]
  Blackgrass plant response rating: 0
Blackgrass [1]; [8]
  Plant response rating, Blackgrass: 0
Blackgrass [1]; [9]
  Plant response rating, Blackgrass: 0
Blackgrass [1]; [10]
  Plant response rating, Blackgrass: 3
Blackgrass [1]; [11]
  Blackgrass plant response rating: 0
Blackgrass [1]; [12]
  Blackgrass plant response rating: 2
Johnson grass; [13]
  Plant response rating Johnsongrass: 0
Johnson grass; [14]
  Plant response rating Johnsongrass: 0
Johnson grass; [15]
  Plant response rating Johnsongrass: 0
Johnson grass; Rate 250 g/ha
  Plant response rating Johnsongrass: 0
crabgrass; [5]
  Crabgrass plant response rating: 3
crabgrass; [6]
  Crabgrass plant response rating: 9
crabgrass; [7]
  Crabgrass plant response rating: 2
crabgrass; [8]
  Plant response rating, Crabgrass: 3
crabgrass; [9]
  Plant response rating, Crabgrass: 7
crabgrass; [10]
  Plant response rating, Crabgrass: 9
crabgrass; [11]
  Crabgrass plant response rating: 1
crabgrass; [12]
  Crabgrass plant response rating: 6
Common pursiane; [13]
  Plant response rating, C. purslane: 0
Common pursiane; [14]
  Plant response rating, C. purslane: 0
Common pursiane; [15]
  Plant response rating, C. purslane: 0
Common pursiane; Rate 250 g/ha
  Plant response rating, C. purslane: 0
bamyardgrass; [5]
  Barnyardgrass plant response rating: 5
bamyardgrass; Rate 125 g/ha, Postemergence section (flood test species), scale 0 to 10, 0 no effect, 10 complete control
  Barnyardgrass plant response rating: 8
bamyardgrass; Rate 500 g/ha, Postemergence section of Table B, 0 to 10 scale (0 no effect, 10 complete control)
  Barnyardgrass plant response rating: 10
bamyardgrass; flood test, listed under Postemergence, Rate 250 g/ha, scale 0 to 10, 0 no effect, 10 complete control
  Barnyardgrass plant response rating: 9

## C=C(C)Cn1c(=O)on(C(=O)N(c2ccc(F)cc2)C(C)C)c1=O [Compound 139]
morningglory; [16]
  Morningglory plant response rating: 5
morningglory; [17]
  Morningglory plant response rating: 0
morningglory; [18]
  Morningglory plant response rating (0 to 10 scale): 0
morningglory; [19]
  Morningglory plant response rating: 0
morningglory; [20]
  Morningglory plant response rating: 0
morningglory; [21]
  Morningglory plant response rating: 3
morningglory; [22]
  Plant response rating, Morningglory: 6
morningglory; [23]
  Morningglory plant response rating: 9
Blackgrass [1]; [16]
  Blackgrass plant response rating: 2
Blackgrass [1]; [17]
  Blackgrass plant response rating: 4
Blackgrass [1]; [18]
  Blackgrass plant response rating (0 to 10 scale): 6
Blackgrass [1]; [19]
  Blackgrass plant response rating: 9
Blackgrass [1]; [20]
  Blackgrass plant response rating: 10
Blackgrass [1]; [21]
  Blackgrass plant response rating: 2
Blackgrass [1]; [22]
  Plant response rating, Blackgrass: 7
Blackgrass [1]; [23]
  Blackgrass plant response rating: 8
Johnson grass; [14]
  Plant response rating Johnsongrass: 10
crabgrass; [16]
  Crabgrass plant response rating: 8
crabgrass; [17]
  Crabgrass plant response rating: 7
crabgrass; [18]
  Crabgrass plant response rating (0 to 10 scale): 10
crabgrass; [19]
  Crabgrass plant response rating: 10
crabgrass; [20]
  Crabgrass plant response rating: 10
crabgrass; [21]
  Crabgrass plant response rating: 8
crabgrass; [22]
  Plant response rating, Crabgrass: 9
crabgrass; [23]
  Crabgrass plant response rating: 9
Common pursiane; [14]
  Plant response rating, C. purslane: 0
bamyardgrass; Postemergence (flood test species), Rate 125 g/ha, scale of 0 to 10 where 0 is no effect and 10 is complete control
  Barnyardgrass plant response rating: 0
bamyardgrass; Rate 31 g/ha, Postemergence section (flood test species), scale 0 to 10
  Barnyardgrass plant response rating: 0
bamyardgrass; Rate 62 g/ha, Postemergence section, flood test species, scale of 0 to 10 where 0 is no effect and 10 is complete control
  Barnyardgrass plant response rating: 0
bamyardgrass; Rate 250 g/ha, Postemergence (flood test), scale 0 to 10, 0 is no effect, 10 is complete control
  Plant response rating, Barnyardgrass: 0
bamyardgrass; [24]
  Barnyardgrass plant response rating: 0
bamyardgrass; Rate 500 g/ha, headed Pre-emergence (flood test species), scale 0 to 10 (0 no effect, 10 complete control)
  Plant response rating, Barnyardgrass: 0
bamyardgrass; Rate 1000 g/ha, Pre-emergence (as headed), scale 0 to 10
  Barnyardgrass plant response rating: 0
bamyardgrass; Rate 2000 g/ha, Pre-emergence (as headed), scale 0 to 10, 0 no effect, 10 complete control
  Barnyardgrass plant response rating: 6

## CCC(CC)n1c(=O)on(C(=O)N(c2ccc(F)cc2F)C(C)C)c1=O [Compound 353]
Winter barley; [25]
  Plant response rating, Barley (winter): 10
Winter barley; Rate 250 g/ha, 0 to 100 scale, 0 no effect, 100 complete control
  Plant response rating, Barley (winter): 20
Winter barley; [26]
  Plant response rating, Barley (winter): 30
Blackgrass [2]; [25]
  Plant response rating, Blackgrass: 10
Blackgrass [2]; Rate 250 g/ha, 0 to 100 scale
  Plant response rating, Blackgrass: 50
Blackgrass [2]; [26]
  Plant response rating, Blackgrass: 55
Winter wheat [3]; [25]
  Plant response rating, Wheat (winter): 20
Winter wheat [3]; Rate 250 g/ha, 0 to 100 scale
  Plant response rating, Wheat (winter): 40
Winter wheat [3]; [26]
  Plant response rating, Wheat (winter): 60
Green foxtail; [25]
  Plant response rating, Green foxtail: 70
Green foxtail; Rate 250 g/ha, 0 to 100 scale
  Plant response rating, Green foxtail: 100
Green foxtail; [26]
  Plant response rating, Green foxtail: 100
morningglory; [27]
  Plant response rating, Morningglory: 3
morningglory; [17]
  Plant response rating, Morningglory: 0
morningglory; Preemergence, Rate 125 g/ha
  Morningglory plant response rating (0 to 10 scale): 0
morningglory; [10]
  Morningglory plant response rating: 1
morningglory; [28]
  Morningglory plant response rating: 1
morningglory; [21]
  Morningglory plant response rating: 3
morningglory; [29]
  Plant response rating, Morningglory: 10
Blackgrass [1]; [27]
  Plant response rating, Blackgrass: 4
Blackgrass [1]; [17]
  Plant response rating, Blackgrass: 2
Blackgrass [1]; [10]
  Blackgrass plant response rating: 7
Blackgrass [1]; [28]
  Blackgrass plant response rating: 8
Blackgrass [1]; [21]
  Blackgrass plant response rating: 0
Blackgrass [1]; Rate 250 g/ha, Postemergence, scale of 0 to 10 where 0 is no effect and 10 is complete control
  Plant response rating, Blackgrass: 4
Blackgrass [1]; [29]
  Plant response rating, Blackgrass: 9
crabgrass; [27]
  Plant response rating, Crabgrass: 0
crabgrass; [17]
  Plant response rating, Crabgrass: 7
crabgrass; Preemergence, Rate 125 g/ha
  Crabgrass plant response rating (0 to 10 scale): 9
crabgrass; [10]
  Crabgrass plant response rating: 10
crabgrass; [28]
  Crabgrass plant response rating: 10
crabgrass; [21]
  Crabgrass plant response rating: 0
crabgrass; [29]
  Plant response rating, Crabgrass: 3
Italian ryegrass; [25]
  Plant response rating, I. Ryegrass: 40
Italian ryegrass; Rate 250 g/ha, 0 to 100 scale
  Plant response rating, I. Ryegrass: 90
Italian ryegrass; [26]
  Plant response rating, I. Ryegrass: 90
Winter wheat [4]; Rate 125 g/ha
  Plant response rating, Wheat (winter): 20
Winter wheat [4]; Rate 250 g/ha
  Plant response rating, Wheat (winter): 30
Winter wheat [4]; Rate 500 g/ha
  Plant response rating, Wheat (winter): 40
bamyardgrass; Rate 62 g/ha, flood test species, Pre-emergence, visual evaluation after twelve to sixteen days
  Plant response rating, Barnyardgrass (0 to 10 scale, 0 is no effect, 10 is complete control): 0
bamyardgrass; Rate 125 g/ha, Pre-emergence, flood test species, scale 0 to 10 where 0 is no effect and 10 is complete control
  Barnyardgrass plant response rating: 0
bamyardgrass; [24]
  Barnyardgrass plant response rating: 0
bamyardgrass; Rate 500 g/ha, Pre-emergence, flood test species, scale 0 to 10 (0 no effect, 10 complete control)
  Barnyardgrass plant response rating: 9
Wild oat; [25]
  Plant response rating, Wild oat: 30
Wild oat; Rate 250 g/ha, 0 to 100 scale
  Plant response rating, Wild oat: 55
Wild oat; [26]
  Plant response rating, Wild oat: 85
